A short description of data set [1]: Stability of the compound in mouse liver microsomes assessed as intrinsic clearance. The data set is classed as ADME, Microsome. As to conditions: read-out: CLH.
Data set [2] deals with Voltage-gated inwardly rectifying potassium channel KCNH2 (Homo sapiens, UniProt Q12809). In words: Inhibition of human ERG. The data set is classed as toxicity.
The nature of data set [3]: Solubility of the compound at pH 7.4. The data set is classed as physicochemical. As to conditions: buffer.
Data set [4] addresses T1, Lysosomal acid glucosylceramidase (Homo sapiens, UniProt P04062, N409S). The data set is described as follows: Inhibition of GCase N370S GBA mutant in patient derived fibroblast cells using 4-methylumbelliferyl-beta-D-glucopyranoside as substrate incubated for 5 days by fluorescence based analysis. The note with it: read-out: IC50. The data set is classed as cell-based.

Data set [5] in a line: Stability of the compound in human liver microsomes assessed as intrinsic clearance. The data set is classed as ADME, Microsome. As to conditions: read-out: CLH.
The target in data set [6] is T1, Lysosomal acid glucosylceramidase. The data set is described as follows: Chaperone activity at GCase N370S GBA mutant in patient derived fibroblast cells using 4-methylumbelliferyl-beta-D-glucopyranoside as substrate incubated for 5 days by fluorescence based analysis. The data set is classed as cell-based. As to conditions: read-out: EC50.
Data set [7] in a line: Solubility of the compound at pH 1.2. The data set is classed as physicochemical. The note with it: buffer.
The nature of data set [8]: Stability of the compound in JPI fluid at pH 1.2. The data set is classed as physicochemical. The note with it: buffer.
A short description of data set [9]: Stability of the compound in DMSO. The data set is classed as physicochemical.

As a reminder, the IC50 is the concentration at which inhibition is half-maximal. As a reminder, the solubility is the concentration that dissolves in the medium under given conditions. Higher therefore signals much dissolved substance. As a reminder, the EC50 is the concentration that produces a half-maximal response.

Molecules are shown by their SMILES.

Sequence of Voltage-gated inwardly rectifying potassium channel KCNH2 (Q12809 whole entry): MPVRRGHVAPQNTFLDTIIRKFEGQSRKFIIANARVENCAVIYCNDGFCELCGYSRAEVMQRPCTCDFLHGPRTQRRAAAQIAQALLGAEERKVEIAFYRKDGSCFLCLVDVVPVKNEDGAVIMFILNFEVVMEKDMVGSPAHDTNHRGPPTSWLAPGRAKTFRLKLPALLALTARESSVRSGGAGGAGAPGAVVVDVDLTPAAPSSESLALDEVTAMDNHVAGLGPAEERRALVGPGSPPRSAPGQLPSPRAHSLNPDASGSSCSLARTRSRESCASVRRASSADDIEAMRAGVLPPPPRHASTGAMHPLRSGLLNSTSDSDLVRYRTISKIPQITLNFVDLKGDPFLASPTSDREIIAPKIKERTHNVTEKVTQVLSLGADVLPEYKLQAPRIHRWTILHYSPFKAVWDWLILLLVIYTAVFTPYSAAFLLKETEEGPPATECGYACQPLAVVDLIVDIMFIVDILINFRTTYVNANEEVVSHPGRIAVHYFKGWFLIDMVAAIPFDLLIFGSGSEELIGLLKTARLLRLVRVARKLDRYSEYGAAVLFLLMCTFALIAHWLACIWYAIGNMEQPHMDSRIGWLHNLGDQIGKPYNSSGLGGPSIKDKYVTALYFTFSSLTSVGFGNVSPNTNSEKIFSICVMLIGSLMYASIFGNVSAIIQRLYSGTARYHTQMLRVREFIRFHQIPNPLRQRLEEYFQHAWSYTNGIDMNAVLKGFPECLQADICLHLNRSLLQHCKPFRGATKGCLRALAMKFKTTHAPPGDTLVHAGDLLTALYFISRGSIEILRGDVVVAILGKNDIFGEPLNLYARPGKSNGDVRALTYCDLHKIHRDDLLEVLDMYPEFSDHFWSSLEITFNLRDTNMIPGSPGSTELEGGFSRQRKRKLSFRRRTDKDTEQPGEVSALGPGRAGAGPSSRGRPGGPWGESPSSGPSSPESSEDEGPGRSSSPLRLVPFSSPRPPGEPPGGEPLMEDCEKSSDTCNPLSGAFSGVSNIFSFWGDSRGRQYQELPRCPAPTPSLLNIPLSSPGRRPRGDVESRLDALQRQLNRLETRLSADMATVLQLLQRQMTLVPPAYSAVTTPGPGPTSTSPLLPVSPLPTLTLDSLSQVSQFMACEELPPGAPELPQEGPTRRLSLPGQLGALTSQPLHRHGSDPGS

With `Cc1n[nH]c2c1[C@@H](O)[C@H](n1nnc3ccccc31)[C@@H](c1ccccc1Br)N2`, the results for the microsomal CLint in [1] and in data set [5] were 31.4 µL/min/mg and 22.7 µL/min/mg, respectively. Moreover, the IC50 in data set [2] is greater than 25000 nM; in data set [4], 330 nM. Further, the solubility in data set [3] and in data set [7] was greater than 100 µM throughout. In data set [6], the concentration giving a half-maximal response (EC50) stood at 86 nM.

With `Cc1cc2n(n1)C(O)[C@H](n1nnc3ccccc31)[C@@H](c1ccccc1)N2` (stereo not given in full), the Stability entry in data set [8] and in [9] was “Stable” each time. The EC50 in [6] is 5600 nM.

The values above are taken from ChEMBL document CHEMBL5329195, “Identification of novel glucocerebrosidase chaperones by unexpected skeletal rearrangement reaction” (Bioorg Med Chem Lett, 2023).
